# Source: US4965280A, “Antifungal carbinols” (E. I. Du Pont de Nemours and Company, priority 1989, dated 1990)
# Read-outs that look alike come from different tables or passages of the source.
# How the values were obtained:
# [1] = test system: Cercosporidium personatum; test: Example B Peanut Late Leafspot; assay type: in vivo; details: Nothopassalora personata; 100 PPM; read-out: disease control rating, Ex. B
# Outline: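 Dose 100 or 20 ppm; vehicle acetone 6% v/v final in water + 250 ppm surfactant; applied by spraying peanut seedlings to run-off.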
# [2] = test system: Erysiphe graminis f. sp. tritici; test: Example D wheat powdery mildew; assay type: in vivo; details: Blumeria graminis, 144 h; 100 PPM; read-out: disease control rating, Ex. D
# Outline: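 First, compound taken up in acetone, 6% of the end volume. Next, suspended in water with 250 ppm polyhydric alcohol esters at 100 or 20 ppm. Last, applied to wheat seedlings until run-off.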
# Pyricularia oryzae = test: whole plant or invertebrate; assay type: in vivo; details: Pyricularia oryzae, 120 h, read-out: disease control rating, Ex. E, 100 PPM
# Rhizoctonia solani [3] = test: Example F rice sheath blight; assay type: in vivo; details: Rhizoctonia solani, 144 h, 100 PPM; read-out: disease control rating, Ex. F
# Outline: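 Application rates were 100 or 20 ppm, delivered as a foliar spray to the point of run-off on rice seedlings. The formulation used 6% acetone in water with 250 ppm surfactant.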
# Puccinia recondita = test: Example G wheat leaf rust; assay type: in vivo; details: 100 PPM, read-out: disease control rating, Ex. G
# Phytophthora infestans = test: whole plant or invertebrate; assay type: in vivo; details: Phytophthora infestans, in Solanum lycopersicum, read-out: disease control rating, Ex. H, 100 PPM
# Plasmorpara viticola = test: Example I grape downy mildew; assay type: in vivo; details: read-out: disease control rating, Ex. I
# Outline: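 First, each compound is taken up in acetone amounting to 6% of the final volume. It is then suspended in purified water containing 250 ppm of the polyhydric alcohol ester surfactant TREM 014, at 100 or 20 ppm. Finally, the suspension is sprayed onto grape seedlings until run-off.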
# Rhizoctonia solani [4] = test: Example K cotton blight; assay type: in vivo; details: 336 h, 5 kg/ha, read-out: disease control rating, Ex. K
# Procedure: […] Seeds and soil were then inoculated with a mixture of sand, cereal and mycelium of the fungus Rhizoctonia solani, causal agent of cotton blight, and incubated in a growth chamber at 30° C. for 14 days. Disease ratings were then made.
# Sclerotium rolfsii = test: Example M southern blight; assay type: in vivo; details: Agroathelia rolfsii, 336 h; 5 kg/ha; read-out: disease control rating, Ex. M
# Procedure: […] Seeds and soil were then inoculated with a mixture of sand, cereal and mycelium of the fungus Sclerotium rolfsii, causal agent of sourthern blight, and incubated in a growth chamber at 30° C. for 14 days. Disease ratings were then made.
# BARNYARDGRASS = test: Test C rice paddy; assay type: in vivo, Echinochloa crusgalli; details: Echinochloa crus-galli, 504 h, 21 days, read-out: plant response; for pest or weed control at 64 g/ha: 0064 G/HA; for pest or weed control at 125 g/ha: 0125 G/HA; for pest or weed control at 250 g/ha: 0250 G/HA; for pest or weed control at 500 g/ha: 0500 G/HA
# Source text: (§1) Sixteen cm diameter Airlite plastic pots were partially filled with Tama slit loam soil and the soil saturated with water. Japonica and Indica rice seedlings a the 2.0 to 2.5 leaf stage were transplanted into 1/3 of the pots. Into another third of the pots were transplanted seedling or sprouted tubers of water plantain (Alisma trivale), Scripus (Scirpus paludosus), Cyperus (Cyperus esculentus), and arrowhead (Sagittaria spp.). The remaining pots were planted with barnyardgrass (Echinochloa crusgalli) seeds and sprouted tubes of water chestnut (Eleocharis spp.). These weeds all represent major rice weeds or genera of weeds important in rice. Three to four days after planting, the water level was raised to 3 cm (about 1200 ml/pot) and maintained a this level throughout the test. Chemical treatments were applied directly to the paddy water, within 24 hours of raising the water, after being formulated in a nonphytotoxic solvent. The pots were maintained in the greenhouse.
# ARROWHEAD = test: Test C rice paddy; assay type: in vivo, Sagittaria spp.; details: Sagittaria, 504 h, 21 days, read-out: plant response; for pest or weed control at 64 g/ha: 0064 G/HA; for pest or weed control at 125 g/ha: 0125 G/HA; for pest or weed control at 250 g/ha: 0250 G/HA; for pest or weed control at 500 g/ha: 0500 G/HA
# Source text: as §1
# RICE JAP EFF = test: Test C rice paddy; assay type: in vivo, Japonica rice; details: Oryza sativa, 504 h, 21 days, read-out: plant response; for pest or weed control at 64 g/ha: 0064 G/HA; for pest or weed control at 125 g/ha: 0125 G/HA; for pest or weed control at 250 g/ha: 0250 G/HA; for pest or weed control at 500 g/ha: 0500 G/HA
# Source text: as §1
# [5] = test system: Candida albicans ATCC 11651; test: In vivo systemic Candida infection in mice, primary assay; parameters: species or system Candida albicans; CF-1 female mice; details: Candida albicans, 150 mg/kg per day, read-out: % Survival
# Outline: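 CF-1 female mice (20 g, 10 per group) were infected IV with 0.2 ml of 1×10^7/ml C. albicans ATCC 11651, then given test compound subcutaneously at 50 or 150 mg/kg/day at 1 and 6 h post-infection and once daily for three more days. Survival was followed for 21 days against infected untreated mice; ≥70% protection at 14 days was scored active.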
Compound,pest or weed control at 100 ppm [1] [%],pest or weed control at 100 ppm [2] [%],pest or weed control at 100 ppm (Pyricularia oryzae) [%],pest or weed control at 100 ppm (Rhizoctonia solani [3]) [%],pest or weed control at 100 ppm (Puccinia recondita) [%],pest or weed control at 64 g/ha (BARNYARDGRASS) [%],pest or weed control at 125 g/ha (BARNYARDGRASS) [%],pest or weed control at 250 g/ha (BARNYARDGRASS) [%],pest or weed control at 500 g/ha (BARNYARDGRASS) [%],pest or weed control at 1000 g/ha (BARNYARDGRASS) [%],pest or weed control at 64 g/ha (ARROWHEAD) [%],pest or weed control at 125 g/ha (ARROWHEAD) [%],pest or weed control at 250 g/ha (ARROWHEAD) [%],pest or weed control at 500 g/ha (ARROWHEAD) [%],pest or weed control at 1000 g/ha (ARROWHEAD) [%],pest or weed control at 64 g/ha (RICE JAP EFF) [%],pest or weed control at 125 g/ha (RICE JAP EFF) [%],pest or weed control at 250 g/ha (RICE JAP EFF) [%],pest or weed control at 500 g/ha (RICE JAP EFF) [%],pest or weed control at 1000 g/ha (RICE JAP EFF) [%],also measured
C=C(c1ccc(F)cc1)C(O)(Cn1ncnc1I)c1ccc(F)cc1F (stereo not shown) [Example 1381],100,98,51,73,100,55,55,60,100,100,0,0,0,0,0,0,0,20,40,60,pest or weed control at 100 ppm (Phytophthora infestans): 0%; pest or weed control at 100 ppm (Plasmorpara viticola): 78%; pest or weed control at 5000 g/ha (Rhizoctonia solani [4]): 50%; pest or weed control at 5000 g/ha (Sclerotium rolfsii): 0%
C=C(c1ccc(F)cc1)C(O)(Cn1ncnc1S)c1ccc(F)cc1F (stereo not shown) [Example 1304],100,100,78,88,100,85,100,100,98,100,0,0,0,0,30,0,0,0,0,40,pest or weed control at 100 ppm (Phytophthora infestans): 0%; pest or weed control at 100 ppm (Plasmorpara viticola): 18%; pest or weed control at 5000 g/ha (Rhizoctonia solani [4]): 0%; pest or weed control at 5000 g/ha (Sclerotium rolfsii): 0%
C=C(c1ccccc1Cl)C(O)(Cn1cncn1)c1ccc(F)cc1F (stereo not shown) [Example 35],100,100,0,100,96,70,100,80,100,95,0,0,40,50,95,0,0,0,0,20,"responders at 150 mg/kg ([5]; ATCC11651, 168 h, day 7): 100%; responders at 150 mg/kg ([5]; ATCC11651, 336 h, day 14): 100%; responders at 150 mg/kg ([5]; ATCC11651, 504 h, day 21): 90%; pest or weed control at 100 ppm (Phytophthora infestans): 0%; pest or weed control at 100 ppm (Plasmorpara viticola): 26%; pest or weed control at 5000 g/ha (Rhizoctonia solani [4]): 0%; pest or weed control at 5000 g/ha (Sclerotium rolfsii): 0%"
C=C(c1ccc(Cl)cc1)C(O)(Cn1cncn1)c1ccccc1F (stereo not shown) [Example 669],100,100,96,100,100,90,98,98,90,100,0,0,0,0,0,0,0,0,0,0,"responders at 150 mg/kg ([5]; ATCC11651, 168 h, day 7): 100%; responders at 150 mg/kg ([5]; ATCC11651, 336 h, day 14): 100%; responders at 150 mg/kg ([5]; ATCC11651, 504 h, day 21): 100%; pest or weed control at 100 ppm (Phytophthora infestans): 0%; pest or weed control at 100 ppm (Plasmorpara viticola): 0%; pest or weed control at 5000 g/ha (Rhizoctonia solani [4]): 0%; pest or weed control at 5000 g/ha (Sclerotium rolfsii): 0%"
C=C(c1ccc(Cl)cc1Cl)C(O)(Cn1cncn1)c1ccccc1F (stereo not shown) [Example 107],–,–,–,–,–,0,0,40,90,80,0,0,0,95,70,0,0,30,40,50,–
"C=C(c1ccccc1)C(O)(Cn1cncn1)c1ccc(Cl)cc1Cl (stereo not shown) [Example 50, 2-(2,4-Dichlorophenyl)-3-phenyl-1-(1H-1,2,4-triazol-1-yl)-3-buten-2-ol]",100,95,86,93,100,0,0,60,70,70,0,0,0,30,50,0,0,30,60,70,"responders at 150 mg/kg ([5]; ATCC11651, 168 h, day 7): 100%; responders at 150 mg/kg ([5]; ATCC11651, 336 h, day 14): 90%; responders at 150 mg/kg ([5]; ATCC11651, 504 h, day 21): 50%; pest or weed control at 100 ppm (Phytophthora infestans): 0%; pest or weed control at 100 ppm (Plasmorpara viticola): 46%"
